Assay results taken from ChEMBL document CHEMBL5385893, “Bestatin analogs-4-quinolinone hybrids as antileishmanial hits: Design, repurposing rational, synthesis, in vitro and in silico studies” (Eur J Med Chem, 2023).
The source made the active and inactive calls. No cut-off for these calls is given here.

Tests used:
Leishmania donovani [1] = assay: Antileishmanial activity against promastigotes-based model of Leishmania donovani MHOM/SD/62/1S-CL2D assessed as growth inhibition by measuring metabolism of resazurin to resorufin by aerobic respiration at 50 uM measured after 3 days relative to control; type: functional; conditions: for inhibition at 50 µM: 72 h, time 3 day; for inhibition: time 3.0 day
Leishmania donovani [2] = assay: Antileishmanial activity against promastigotes-based model of Leishmania donovani MHOM/SD/62/1S-CL2D assessed as growth inhibition by measuring metabolism of resazurin to resorufin by aerobic respiration at 25 uM measured after 3 days relative to control; type: functional; conditions: for inhibition: time 3.0 day; for inhibition at 25 µM: 72 h, time 3 day
[3] = Cytotoxicity against human THP-1 cells assessed as cell death by measuring metabolism of resazurin to resorufin measured after 3 days; type: toxicity, cell-based; conditions: time 3 day
[4] = Cytotoxicity against human HEK293T cells assessed as cell death by measuring metabolism of resazurin to resorufin measured after 3 days; type: toxicity, cell-based, HEK-293T; conditions: time 3 day

For Cc1c(C(=O)N[C@@H](Cc2ccccc2)[C@@H](O)C(=O)NC(C)C)[nH]c2ccccc2c1=O, the inhibition at 50 µM (Leishmania donovani [1]) was 4% and the inhibition (Leishmania donovani [2]) was “inactive”.
With Cc1c(C(=O)N[C@@H](Cc2ccccc2)C(=O)C(=O)NCc2ccccc2)[nH]c2ccccc2c1=O the inhibition at 50 µM (Leishmania donovani [1]) was 22% and the inhibition at 25 µM (Leishmania donovani [2]) was 3%.
For Cc1c(C(=O)N[C@@H](Cc2ccccc2)[C@@H](O)C(=O)NCc2ccc(F)cc2)[nH]c2ccccc2c1=O, the inhibition at 50 µM (Leishmania donovani [1]) was 8% and the inhibition (Leishmania donovani [2]) was “inactive”.
In the case of Cc1c(C(=O)N[C@@H](Cc2ccccc2)C(=O)C(=O)NCc2ccc(F)cc2)[nH]c2ccccc2c1=O, the inhibition (Leishmania donovani [1]) is reported as “inactive” and the inhibition (Leishmania donovani [2]) is reported as “inactive”.
In the case of COc1ccc(CCNC(=O)[C@H](O)[C@H](Cc2ccccc2)NC(=O)c2[nH]c3ccccc3c(=O)c2C)cc1, the inhibition at 50 µM (Leishmania donovani [1]) is reported as 13% and the inhibition (Leishmania donovani [2]) is reported as “inactive”.
With Cc1c(C(=O)N[C@@H](Cc2ccccc2)[C@@H](O)C(=O)NCc2ccccn2)[nH]c2ccccc2c1=O the inhibition at 50 µM (Leishmania donovani [1]) was 12% and the inhibition (Leishmania donovani [2]) was “inactive”.
Compound Cc1c(C(=O)N[C@@H](Cc2ccccc2)C(=O)C(=O)NCCc2ccccc2)nc2ccccc2c1O has an inhibition at 50 µM (Leishmania donovani [1]) of 50%, an inhibition at 25 µM (Leishmania donovani [2]) of 38% and a CC50 at 72 h [3] greater than 200 µM. It also gave a CC50 at 72 h [4] of 107 µM.
With Cc1c(C(=O)N[C@@H](Cc2ccccc2)C(=O)C(=O)NC(C)C)[nH]c2ccccc2c1=O the inhibition (Leishmania donovani [1]) was “inactive” and the inhibition (Leishmania donovani [2]) was “inactive”.
In the case of COc1ccc(CNC(=O)C(=O)[C@H](Cc2ccccc2)NC(=O)c2[nH]c3ccccc3c(=O)c2C)cc1, the inhibition at 50 µM (Leishmania donovani [1]) is reported as 9% and the inhibition (Leishmania donovani [2]) is reported as “inactive”.
With COc1ccc(CNC(=O)[C@H](O)[C@H](Cc2ccccc2)NC(=O)c2[nH]c3ccccc3c(=O)c2C)cc1OC the inhibition at 50 µM (Leishmania donovani [1]) was 23% and the inhibition (Leishmania donovani [2]) was “inactive”.
In the case of Cc1c(C(=O)N[C@@H](Cc2ccccc2)C(=O)C(=O)NCc2ccccn2)[nH]c2ccccc2c1=O, the inhibition (Leishmania donovani [1]) is reported as “inactive” and the inhibition (Leishmania donovani [2]) is reported as “inactive”.
Cc1c(C(=O)N[C@@H](Cc2ccccc2)[C@@H](O)C(=O)NCCc2ccccn2)[nH]c2ccccc2c1=O gave an inhibition at 50 µM (Leishmania donovani [1]) of 31% and an inhibition at 25 µM (Leishmania donovani [2]) of 8%.
In the case of COc1ccc(CNC(=O)C(=O)[C@H](Cc2ccccc2)NC(=O)c2[nH]c3ccccc3c(=O)c2C)cc1OC, the inhibition at 50 µM (Leishmania donovani [1]) is reported as 38% and the inhibition (Leishmania donovani [2]) is reported as “inactive”.
Cc1c(C(=O)N[C@@H](Cc2ccccc2)[C@@H](O)C(=O)NCc2ccccc2)[nH]c2ccccc2c1=O gave an inhibition at 50 µM (Leishmania donovani [1]) of 91%, an inhibition at 25 µM (Leishmania donovani [2]) of 53% and a CC50 at 72 h [3] of 93 µM. For the same compound, the CC50 at 72 h [4] was greater than 200 µM.
With CCCCCCCC/C=C\CCCCCCCCCCCCOP(=O)([O-])OCCC[N+](C)(C)C the inhibition at 50 µM (Leishmania donovani [1]) was 108%, the inhibition at 25 µM (Leishmania donovani [2]) was 106% and the CC50 at 72 h [3] was 2 µM. For the same compound, the CC50 at 72 h [4] was 28 µM.
In the case of COc1ccc(CNC(=O)[C@H](O)[C@H](Cc2ccccc2)NC(=O)c2[nH]c3ccccc3c(=O)c2C)cc1, the inhibition at 50 µM (Leishmania donovani [1]) is reported as 16% and the inhibition (Leishmania donovani [2]) is reported as “inactive”.
In the case of COc1ccc(CCNC(=O)C(=O)[C@H](Cc2ccccc2)NC(=O)c2[nH]c3ccccc3c(=O)c2C)cc1, the inhibition at 50 µM (Leishmania donovani [1]) is reported as 23% and the inhibition (Leishmania donovani [2]) is reported as “inactive”.
CNC(=O)[C@H](O)[C@H](Cc1ccccc1)NC(=O)c1[nH]c2ccccc2c(=O)c1C showed an inhibition at 50 µM (Leishmania donovani [1]) of 22% and an inhibition at 25 µM (Leishmania donovani [2]) of 1%.
For CCNC(=O)[C@H](O)[C@H](Cc1ccccc1)NC(=O)c1[nH]c2ccccc2c(=O)c1C, the inhibition at 50 µM (Leishmania donovani [1]) was 1% and the inhibition (Leishmania donovani [2]) was “inactive”.
In the case of CCNC(=O)C(=O)[C@H](Cc1ccccc1)NC(=O)c1[nH]c2ccccc2c(=O)c1C, the inhibition (Leishmania donovani [1]) is reported as “inactive” and the inhibition (Leishmania donovani [2]) is reported as “inactive”.
With Cc1c(C(=O)N[C@@H](Cc2ccccc2)C(=O)C(N)=O)[nH]c2ccccc2c1=O the inhibition (Leishmania donovani [1]) was “inactive” and the inhibition (Leishmania donovani [2]) was “inactive”.
For Cc1c(C(=O)N[C@@H](Cc2ccccc2)[C@@H](O)C(N)=O)[nH]c2ccccc2c1=O, the inhibition at 50 µM (Leishmania donovani [1]) was 51%, the inhibition at 25 µM (Leishmania donovani [2]) was 17% and the CC50 at 72 h [3] was greater than 200 µM. It also gave a CC50 at 72 h [4] greater than 200 µM.
For CNC(=O)C(=O)[C@H](Cc1ccccc1)NC(=O)c1[nH]c2ccccc2c(=O)c1C, the inhibition (Leishmania donovani [1]) was “inactive” and the inhibition (Leishmania donovani [2]) was “inactive”.
With Cc1c(C(=O)N[C@@H](Cc2ccccc2)C(=O)C(=O)NCCc2ccccn2)[nH]c2ccccc2c1=O the inhibition (Leishmania donovani [1]) was “inactive” and the inhibition (Leishmania donovani [2]) was “inactive”.
For Cc1c(C(=O)N[C@@H](Cc2ccccc2)[C@@H](O)C(=O)NCCc2ccccc2)[nH]c2ccccc2c1=O, the inhibition (Leishmania donovani [1]) was “inactive” and the inhibition (Leishmania donovani [2]) was “inactive”.
